One test has as its system NIH3T3 cells. Description: Cell-proliferative activity, NIH3T3 cells (MTT assay method, Cell Counting Kit-8). The class given is cell-based. The settings on record: for Cell proliferation rate: 24 hours, no addition taken as 100. As for the experimental part:
NIH3T3 cells were cultured in a 96-well microplate to give a cell density of 10^5 cells/well, and solutions of concentration-adjusted test substance 1 and reference standard of sialic acid (N-acetylneuraminic acid produced by Wako Pure Chemical Industries, Ltd. and having a product number of 011-26173) were each added in an amount of 10 μl, followed by culture in a CO2 incubator for 24 hours (37° C., 4.5% CO2). Cell proliferation was measured by the MTT assay method using a kit (Cell Counting Kit-8 produced by DOJINDO Corporation and having a product number of 347-07621).
The cell proliferation rate was calculated at the respective additive concentrations of the test substance 1, with the value for no addition (0 mg/ml) of the test substance 1 being taken as 100.
The cell proliferation rate was calculated at the respective additive concentrations of the reference standard of sialic acid, with the value for no addition (0 mg/ml) of the reference standard of sialic acid being taken as 100.

The subject of a further test is IGF-1. In words: Ability to promote the production of insulin-like growth factor-1 (IGF-1) in mice. The test is classed as in vivo. As to conditions: mice (n=5), in drinking water, 5 mg/kg weight/day, 3 weeks, ELISA; untreated control 0.03. The procedure: Each of the test substances produced in Example 1 and the reference standard of sialic acid (N-acetylneuraminic acid produced by Wako Pure Chemical Industries, Ltd. and having a product number of 011-26173) was dissolved in drinking water, and after adjustment of their concentrations, the individual solutions were administered to mice (n=5); the test substances were administered at 5 mg/kg weight/day. After rearing for 3 weeks, the concentration of IGF-1 in peripheral blood was examined by ELISA method.
On the technique in general: In an ELISA, binding on a coated surface is turned into a signal by an enzyme label.

These results are taken from US10610537B2, “Methods of producing sialooligosaccharides and uses thereof” (MASAYOSHI LTD., priority 2016, dated 2020).

As to `CC(=O)N[C@H]1[C@H]([C@H](O)[C@H](O)CO)OC(O)(C(=O)O)C[C@@H]1O` (some centres unmarked) [Reference standard of sialic acid, N-acetylneuraminic acid], the Cell proliferation rate in the test on NIH3T3 cells (additive concentration 0.08 mg/ml) is given as 96; with NIH3T3 cells (additive concentration 0.31 mg/ml), 98; with NIH3T3 cells (additive concentration 1.25 mg/ml), 101; in the test with NIH3T3 cells (additive concentration 2.5 mg/ml) it was 98; in the test with NIH3T3 cells (additive concentration 5.0 mg/ml), 99; in the test on NIH3T3 cells (additive concentration 10.0 mg/ml) it was 102. Also, the “Change in cell proliferation rate (in words)” value in the test on NIH3T3 cells (additive concentrations up to 10.0 mg/ml) is “No change was recognized in the proliferation rate”. The “IGF-1 concentration in peripheral blood” value in the test on IGF-1 is 4.4 µg/mL.
